Measurements as given in patent publication US11957766B2, “HNQO1-activatable fluorescent probe for imaging cancer cells in-vitro and in-vivo” (Texas Tech University System, priority 2019, dated 2024).
“Also recorded” adds a separate entry of the source.

Columns and labels:
[1] = Photophysical property of the fluorophore ASM; assay type: physicochemical
Description: Design, preparation, and characterization of the NIR-ASM fluorescent probe. Imaging agents emitting near-infrared fluorescence enable deeper penetration with low phototoxicity and high signal-to-background ratios due to minimal tissue auto-fluorescence, which is a prime requirement for in vivo imaging studies.^40,41 Accordingly, the inventors designed an NQO1 activatable near-infrared fluorescent probe (NIR-ASM) by attaching a trimethyl-lock QPA with (E)-2-(3-(4-aminostyryl)-5,5-dimethylcyclohex-2-en-1-ylidene)malononitrile (ASM) for molecular imaging of cancer cells in vivo (FIG. 9A). The fluorophore ASM was used in this study because of its strong NIR fluorescence signal with substantial Stokes shift (˜190 nm), to eliminate background interferences by avoiding reabsorption of emitted photons. […] NQO1 is a ubiquitous cytosolic two-electron reductase that catalyzes the reduction of quinone substrates in the presence of NADH. Upon interaction with NQO1 in the presence of NADH, QPA present in non-fluorescent NIR-ASM undergoes two-electron reduction to form an o-hydroxydihydrocinnamic acid derivative that undergoes rapid lactonization under physiological conditions to yield dihydrocoumarin, 6-hydroxy-4,4,5,7,8-pentamethylchroman-2-one (HPC) along with highly fluorescent ASM. […]

NQO1 [2] = target: T1, NQO1 (Homo sapiens, UniProt P15559); test: Effect of NQO1 inhibitor ES936 on NQO1 activation of NIR-ASM; assay type: biochemical; design: purchased Sigma-Aldrich D1515; conditions: ES936 0-100 nM, NQO1 pretreated
Method: Selectivity of NIR-ASM. The selectivity of NIR-ASM probe was studied by examining its reactivity towards various biomolecules and antioxidant enzymes such as the glutathione, aldehyde dehydrogenase 1, gamma-glutamyl transferase, glutathione peroxidase, apurinic/apyrimidinic endonuclease, cystathionine-β-synthase, cathepsin L, glutathione S-transferase, NADH alone and the combination of nitroreductase and NQO1.
NQO1 inhibitor efficiency evaluation. NQO1 inhibitor efficiency was evaluated using specific NQO1 inhibitor ES936 under in vitro conditions. 2.5 μg/mL of NQO1 was incubated with different concentrations of ES936 (0-100 nM) in the presence of 100 μM NADH at 37° C. Fluorescence emission was recorded after 30 min of incubation (λex. 460 nm).

[3] = test system: NQO1 in A549 and H460 cells; test: ES936 pretreatment of cells before NIR-ASM (microscopy and flow cytometry); assay type: cell-based, human
Method: Chemical and genetic approaches confirm the specificity of NIR-ASM for NQO1 in live tumor cells. A fluorescence probe with high sensitivity, simple operation, and excellent specificity will be an asset for the detection of NQO1 in situ. To assess the substrate selectivity of NIR-ASM for NQO1, both A549 and H460 cells were pretreated with 100 nM of NQO1 inhibitor ES936 for 6 h, before incubating with 10 μM NIR-ASM. […] The effect of ES936 on endogenous NQO1 activity and subsequent reactivity with NIR-ASM was also determined by flow cytometry. […] The presence of NQO1 protein in the transfected MDA-MB-231 cells and its absence in the untransfected control was confirmed by immunoblotting (FIG. 13E). Subsequently, the NQO1-negative and positive MDA-MB-231 cell lines were incubated with NIR-ASM and analyzed by fluorescence microscopy and flow cytometry for activation of the probe.
Fluorescence imaging. Both cancer and normal cells were seeded into 6-well plates and cultured overnight in respective media at 37° C. […] Finally, the medium was replaced with PBS and the live cells were imaged using a multiphoton confocal fluorescence microscope (λex/em=488/644 nm). […]
Flow cytometry analysis. The endogenous NQO1 activity of cancer cells and normal cells was determined by flow cytometry after NIR-ASM exposure. […] About 1×10^4 cells were analyzed by flow cytometry (λex=488 nm).

hNQO1 in T98G cells = test: ES936 pretreatment of cells before NQ-DCP, fluorescence microscopy; assay type: cell-based, human; conditions: 100 nM ES936 for 6 h, then 10 μM NQ-DCP
Method: Evaluation of Specificity in Cancer Cells. To show the substrate selectivity of NQ-DCP for hNQO1, T98G cells were pretreated with 100 nM of NQO1 inhibitor ES936 for 6 h and incubated 10 μM of NQ-DCP.
Cell Culture, Fluorescence Imaging, and Flow Cytometry Analysis. Brain tumor cells and astrocytes were grown in Dulbecco's modified Eagle's (DMEM) medium containing 10% Fetal Bovine Serum and 1% penicillin/streptomycin in a humidified atmosphere of 5% CO2 at 37° C. For fluorescence imaging, initially, cells were seeded into 6-well plate and cultured overnight in respective media at 37° C. Media was replaced with fresh medium containing 10 μM NQ-DCP and incubated at 37° C. for 60 min and then the medium was replaced with PBS and live cells were imaged using a fluorescence microscope. For inhibitor study, cells were pretreated with NQO1 inhibitor ES936 (100 nM) for 6 h before adding the NQ-DCP. For determining endogenous hNQO1 activity in cancer cells using flow cytometry, about 10×10^4 cells were incubated with 10 μM of NQ-DCP for 60 min and were analyzed using flow cytometry.

NQO1 [4] = target: T1, NQO1; test: Inhibitory effect of ES936 on hNQO1 activation of NQ-DCP; assay type: biochemical; conditions: ES936 0-100 nM, enzyme pre-treated, 30 min
Method: Selectivity of NQ-DCP Towards hNQO1. The specificity of NQ-DCP probe towards hNQO1 was studied by determining its reactivity towards various biomolecules such as the glutathione (GSH, 1 mM), aldehyde dehydrogenase 1 (ALDH1A1, 2.5 μg/mL), gamma-glutamyl transferase (GGT, 10 U), glutathione Peroxidase (GPx, 10 U), apurinic/apyrimidinic endonuclease (APE1, 10 U), cystathionine-β-synthase (CBS, 2 μg/mL), cathepsin L (CTSL, 2 μg/mL), glutathione S-transferase (GST-pi, 2 μg/mL), nitroreductase (NTR, 2 μg/mL) and NADH (100 μM) alone or the combination of and NQO1 (2.5 μg/mL). […] To gain more insight into the specificity of the probe towards hNQO1, the enzyme was pre-treated with ES936 (0-100 nM), a well-known hNQO1 inhibitor [39] and then incubated with NQ-DCP.
Evaluation of Inhibitor Efficiency. To evaluate the inhibitory efficiency of ES936 towards hNQO1 under in vitro conditions, different concentrations of ES936 (0-100 nM) incubated with 2.0 μg/mL of NQO1, 100 μM NADPH in PBS with 0.1% BSA (pH 7.4) at 37° C. Fluorescence emission was recorded after 30 min of incubation (λex=420 nm).

T1 sequence (P15559 whole entry): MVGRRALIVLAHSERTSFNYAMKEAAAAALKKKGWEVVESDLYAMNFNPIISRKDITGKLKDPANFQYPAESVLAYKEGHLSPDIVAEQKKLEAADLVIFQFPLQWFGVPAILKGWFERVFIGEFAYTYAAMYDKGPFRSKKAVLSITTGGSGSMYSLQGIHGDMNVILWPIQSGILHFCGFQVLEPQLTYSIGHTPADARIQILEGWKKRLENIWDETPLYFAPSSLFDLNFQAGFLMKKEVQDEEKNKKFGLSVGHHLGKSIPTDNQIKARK

SMILES	Stokes shift [1]	effect on the fluorescence response of NIR-ASM to NQO1 (NQO1 [2])	effect on NIR-ASM fluorescence in cells (microscopy) ([3]; 100 nM ES936 for 6 h, then 10 μM NIR-ASM)	effect on NIR-ASM induced fluorescence intensity (flow cytometry) ([3]; 100 nM ES936 pretreated tumor cells)	effect on NQ-DCP fluorescence in cells (hNQO1 in T98G cells)	effect on the fluorescence response of NQ-DCP to hNQO1 (NQO1 [4])
CC1(C)CC(/C=C/c2ccc(N)cc2)=CC(=C(C#N)C#N)C1 [ASM, (E)-2-(3-(4-aminostyryl)-5,5-dimethylcyclohex-2-en-1-ylidene) malononitrile]	~190 nm	–	–	–	–	–
COC1=CC(=O)c2c(c(COc3ccc([N+](=O)[O-])cc3)c(C)n2C)C1=O [ES936]	–	effectively suppressed the fluorescence response in a concentration-dependent fashion	completely blocked the NIR-ASM fluorescence	significantly decreased	completely blocked the NQ-DCP fluorescence	effectively suppressed the fluorescence response in a concentration-dependent manner; also recorded: completely blocked the NQ-DCP fluorescence
